Measured values: patent US9023789B2, “Amylin analogs and pharmaceutical compositions thereof” (Novo Nordisk A/S, priority 2012, dated 2015)
Where two headings read alike, the source gives them in different places. Numbered stars: 1 amine (or outer) side, 2 acyl side, 3 side chain; on linkers, the order of the positions; unused ones are H or OH. Bridge positions count the residues as written; N and C are the ends. Side chains are listed from the residue outwards. Peptide text beside a SMILES is read from it. * marks the point of attachment. C20 diacid = O=C(O)CCCCCCCCCCCCCCCCCCC(=O)*; γGlu = O=C(O)[C@H](CCC(=O)[*:2])N[*:1]

What was measured:
[1] = ASSAY (IV) determination of solubility; format: physicochemical
Method in brief: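 Samples of polypeptide, prepared from a water stock at […] and diluted 1:1 into 100 mM buffers spanning pH 3.0 to 8.0, stood 18 hours at room temperature. Polypeptide concentration was then determined by UPLC following centrifugation.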

[2] = target: T1, human amylin receptor (membranes from Amylin 3(a)/CRE-luc cells) (Homo sapiens, UniProt O60896+P30988); experiment: ASSAY (V) binding to the human amylin receptor (SPA, 125I-rat amylin);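 further: competition binding of cell membranes (35 ng/µL) mixed with SPA beads in 384-well plates at 40 µL total volume, read by scintillation counting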
T1 construct: expressed in transfected cells
T1 sequence (P30988 25-474): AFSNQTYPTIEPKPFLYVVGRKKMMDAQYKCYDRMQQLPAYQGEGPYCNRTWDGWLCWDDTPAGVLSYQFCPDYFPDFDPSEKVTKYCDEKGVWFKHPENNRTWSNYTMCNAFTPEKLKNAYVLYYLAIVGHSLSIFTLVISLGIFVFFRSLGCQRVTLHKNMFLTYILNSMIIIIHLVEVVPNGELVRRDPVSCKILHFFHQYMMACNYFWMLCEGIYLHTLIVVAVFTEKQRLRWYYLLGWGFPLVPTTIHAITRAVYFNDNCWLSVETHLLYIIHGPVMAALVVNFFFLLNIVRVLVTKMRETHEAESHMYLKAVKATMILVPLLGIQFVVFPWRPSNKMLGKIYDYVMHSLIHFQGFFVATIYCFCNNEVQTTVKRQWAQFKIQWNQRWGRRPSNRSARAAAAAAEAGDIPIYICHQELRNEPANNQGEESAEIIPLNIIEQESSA
T1 sequence (O60896 24-148 partner): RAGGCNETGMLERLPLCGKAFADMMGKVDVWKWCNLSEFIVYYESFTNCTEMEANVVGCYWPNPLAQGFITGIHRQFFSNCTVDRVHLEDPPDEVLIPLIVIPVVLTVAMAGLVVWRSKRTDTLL

[3] = target: T2, human amylin 3(a) receptor (human calcitonin receptor + RAMP-3) in BHK570 cells (Homo sapiens, UniProt O60896+P30988); experiment: ASSAY (II)a functional assay, human amylin receptor (CRE luciferase); format: cell-based
T2 construct: expressed in transfected cells
Method in brief: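 Receptor activation is measured as cAMP-driven CRE-luciferase expression in BHK cells expressing the calcitonin receptor, with RAMP-3 co-expressed to form the amylin 3(a) receptor. Cells are exposed to compound for 3 hours at 37° C, and luciferase is then quantified by luminescence.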

[4] = bistrispropane buffer, pH 6.5, read-out: Solubility pH 6.5 Concentration
[5] = bistrispropane buffer, pH 7.5, read-out: Solubility pH 7.5 Concentration
[6] = bistrispropane buffer, pH 6.0, read-out: Solubility pH 6.0 Concentration
[7] = bistrispropane buffer, pH 7.0, read-out: Solubility pH 7.0 Concentration
[8] = bistrispropane buffer, pH 8.0, read-out: Solubility pH 8.0 Concentration
[9] = glycylglycine buffer, pH 3.0, read-out: Solubility pH 3.0 Concentration
[10] = glycylglycine buffer, pH 4.0, read-out: Solubility pH 4.0 Concentration
[11] = glycylglycine buffer, pH 5.0, read-out: Solubility pH 5.0 Concentration
[12] = Table 5, selectivity, hCTR bind IC50 / hAmylin-R bind IC50
[13] = Table 5a, selectivity, hCTR bind IC50 / hAmylin-R bind IC50
[14] = Table 5b, selectivity, hCTR bind IC50 / hAmylin-R bind IC50
[15] = Table 5c, selectivity, hCTR bind IC50 / hAmylin-R bind IC50
[16] = Table 7, human binding selectivity, included for comparison
[17] = Table 7a (preferred compounds), human binding selectivity, included for comparison
[18] = ratio of human calcitonin receptor binding IC50 to human amylin receptor binding IC50
[19] = hCTR funct. EC50 divided by hAmylin-R funct. EC50
[20] = hCTR funct. EC50 over hAmylin-R funct. EC50
[21] = human functional selectivity: hCTR funct. EC50 / hAmylin-R funct. EC50

SMILES	solubility at 18 h [1, 4] [µM]	solubility at 18 h [1, 5] [µM]	solubility at 18 h [1, 6] [µM]	solubility at 18 h [1, 7] [µM]	solubility at 18 h [1, 8] [µM]	solubility at 18 h [1, 9] [µM]	solubility at 18 h [1, 10] [µM]	solubility at 18 h [1, 11] [µM]	Ratio hCT/hAmylin binding [2, 12]	Ratio hCT/hAmylin binding [2, 13]	Ratio hCT/hAmylin binding [2, 14]	Ratio hCT/hAmylin binding [2, 15]	Ratio hCT/hAmylin binding [2, 16]	Ratio hCT/hAmylin binding [2, 17]	Ratio hCT/hAmylin binding [2, 18]	Ratio hCT/hAmylin funct. [3, 19]	Ratio hCT/hAmylin funct. [3, 20]	Ratio hCT/hAmylin funct. [3, 21]
CC[C@H](C)[C@H](NC(=O)[C@H](C)NC(=O)CNC(=O)[C@H](Cc1ccccc1)NC(=O)[C@H](CC(N)=O)NC(=O)[C@@H]1CCCN1C(=O)[C@H](CO)NC(=O)[C@H](CO)NC(=O)[C@H](Cc1c[nH]cn1)NC(=O)[C@H](CCCNC(=N)N)NC(=O)[C@H](CC(C)C)NC(=O)[C@H](Cc1ccccc1)NC(=O)[C@H](CC(N)=O)NC(=O)[C@H](C)NC(=O)[C@H](CC(C)C)NC(=O)[C@H](CCCNC(=N)N)NC(=O)[C@H](CCC(N)=O)NC(=O)[C@@H](NC(=O)[C@H](C)NC(=O)[C@@H]1CSSC[C@H](NC(=O)[C@@H](N)CCCCNC(=O)COCCOCCNC(=O)CCCCCCCCCCCCCCCCCCC(=O)O)C(=O)N[C@@H](CC(N)=O)C(=O)N[C@@H]([C@@H](C)O)C(=O)N[C@@H](C)C(=O)N[C@@H]([C@@H](C)O)C(=O)N1)[C@@H](C)O)C(=O)N1CCC[C@H]1C(=O)N[C@@H](CO)C(=O)N[C@@H](CO)C(=O)N[C@H](C(=O)N[C@@H](CC(N)=O)C(=O)N[C@H](C(=O)NCC(=O)N[C@@H](Cc1c[nH]cn1)C(=O)N[C@@H](CC(N)=O)C(=O)N[C@H](C(=O)N[C@@H](Cc1ccc(O)cc1)C(N)=O)[C@@H](C)O)C(C)C)[C@@H](C)O [Example 91]	≥ 200	≥ 200	≥ 200	≥ 200	≥ 200	≥ 200	≥ 200	≥ 200	100.8	100.8	100.8	100.8	100.8	100.8	100.8	36.9	36.9	36.9
CC[C@H](C)[C@H](NC(=O)[C@H](C)NC(=O)CNC(=O)[C@H](Cc1ccccc1)NC(=O)[C@H](CC(N)=O)NC(=O)[C@@H]1CCCN1C(=O)[C@H](CO)NC(=O)[C@H](CO)NC(=O)[C@H](Cc1c[nH]cn1)NC(=O)[C@H](CCCNC(=N)N)NC(=O)[C@H](CC(C)C)NC(=O)[C@H](Cc1ccccc1)NC(=O)[C@H](Cc1c[nH]cn1)NC(=O)[C@H](C)NC(=O)[C@H](CC(C)C)NC(=O)[C@H](CCCNC(=N)N)NC(=O)[C@H](CCC(N)=O)NC(=O)[C@@H](NC(=O)[C@H](C)NC(=O)[C@@H]1CSSC[C@H](NC(=O)[C@@H](N)CCCCNC(=O)CC[C@H](NC(=O)CC[C@H](NC(=O)CCCCCCCCCCCCCCCCCCC(=O)O)C(=O)O)C(=O)O)C(=O)N[C@@H](CC(N)=O)C(=O)N[C@@H]([C@@H](C)O)C(=O)N[C@@H](C)C(=O)N[C@@H]([C@@H](C)O)C(=O)N1)[C@@H](C)O)C(=O)N1CCC[C@H]1C(=O)N[C@@H](CO)C(=O)N[C@@H](CO)C(=O)N[C@H](C(=O)N[C@@H](CC(N)=O)C(=O)N[C@H](C(=O)NCC(=O)N[C@@H](CO)C(=O)N[C@@H](CC(N)=O)C(=O)N[C@H](C(=O)N[C@@H](Cc1ccc(O)cc1)C(N)=O)[C@@H](C)O)C(C)C)[C@@H](C)O [Example 92]	≥ 200	≥ 200	≥ 200	≥ 200	≥ 200	≥ 200	≥ 200	≥ 200	145.0	145.0	145.0	145.0	145.0	145.0	145.0	28.0	28.0	28.0
CC[C@H](C)[C@H](NC(=O)[C@H](C)NC(=O)CNC(=O)[C@H](Cc1ccccc1)NC(=O)[C@H](CC(N)=O)NC(=O)[C@@H]1CCCN1C(=O)[C@H](CO)NC(=O)[C@H](CO)NC(=O)[C@H](Cc1c[nH]cn1)NC(=O)[C@H](CCCNC(=N)N)NC(=O)[C@H](CC(C)C)NC(=O)[C@H](Cc1ccccc1)NC(=O)[C@H](C)NC(=O)[C@H](C)NC(=O)[C@H](CC(C)C)NC(=O)[C@H](CCCNC(=N)N)NC(=O)[C@H](CCC(N)=O)NC(=O)[C@@H](NC(=O)[C@H](C)NC(=O)[C@@H]1CSSC[C@H](NC(=O)[C@@H](N)CCCCNC(=O)CC[C@H](NC(=O)CCCCCCCCCCCCCCCCCCC(=O)O)C(=O)O)C(=O)N[C@@H](CC(N)=O)C(=O)N[C@@H]([C@@H](C)O)C(=O)N[C@@H](C)C(=O)N[C@@H]([C@@H](C)O)C(=O)N1)[C@@H](C)O)C(=O)N1CCC[C@H]1C(=O)N[C@@H](CO)C(=O)N[C@@H](CO)C(=O)N[C@H](C(=O)N[C@@H](CC(N)=O)C(=O)N[C@H](C(=O)NCC(=O)N[C@@H](Cc1c[nH]cn1)C(=O)N[C@@H](CC(N)=O)C(=O)N[C@H](C(=O)N[C@@H](Cc1ccc(O)cc1)C(N)=O)[C@@H](C)O)C(C)C)[C@@H](C)O [Example 93] (H-K([γGlu-C20 diacid])CNTATCATQRLAAFLRHSSPNFGAIPSSTNVGHNTY-NH2; disulfide 2-7; N-terminus assumed)	≥ 200	≥ 200	≥ 200	≥ 200	≥ 200	≥ 200	≥ 200	≥ 200	101.0	101.0	101.0	101.0	101.0	101.0	101.0	9.7	9.7	9.7
CC[C@H](C)[C@H](NC(=O)[C@H](C)NC(=O)CNC(=O)[C@H](Cc1ccccc1)NC(=O)[C@H](CC(N)=O)NC(=O)[C@@H]1CCCN1C(=O)[C@H](CO)NC(=O)[C@H](CO)NC(=O)[C@H](Cc1c[nH]cn1)NC(=O)[C@H](CCCNC(=N)N)NC(=O)[C@H](CC(C)C)NC(=O)[C@H](Cc1ccccc1)NC(=O)[C@H](CC(N)=O)NC(=O)[C@H](C)NC(=O)[C@H](CC(C)C)NC(=O)[C@H](CCCNC(=N)N)NC(=O)[C@H](CCC(N)=O)NC(=O)[C@@H](NC(=O)[C@H](C)NC(=O)[C@@H]1CSSC[C@H](NC(=O)[C@@H](N)CCCCNC(=O)COCCOCCNC(=O)COCCOCCNC(=O)CC[C@H](NC(=O)CCCCCCCCCCCCCCCCCCC(=O)O)C(=O)O)C(=O)N[C@@H](CC(N)=O)C(=O)N[C@@H]([C@@H](C)O)C(=O)N[C@@H](C)C(=O)N[C@@H]([C@@H](C)O)C(=O)N1)[C@@H](C)O)C(=O)N1CCC[C@H]1C(=O)N[C@@H](CO)C(=O)N[C@@H](CO)C(=O)N[C@H](C(=O)N1CCC[C@H]1C(=O)N[C@H](C(=O)NCC(=O)N[C@@H](CO)C(=O)N[C@@H](CC(N)=O)C(=O)N[C@H](C(=O)N[C@@H](Cc1ccc(O)cc1)C(N)=O)[C@@H](C)O)C(C)C)[C@@H](C)O [Example 96]	≥ 200	≥ 200	≥ 200	≥ 200	≥ 200	≥ 200	≥ 200	≥ 200	79.6	79.6	79.6	79.6	79.6	79.6	79.6	21.0	21.0	21.0
